Results from PubChem BioAssay (NCI).
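A five-concentration, 48-hour dose response in 96-well plates underlies each endpoint, interpolated linearly between surrounding concentrations. GI50 is the concentration that inhibits growth by half. The concentration for full growth arrest is given as TGI.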

Key:
Test in all cases: NCI tumour cell line growth inhibition, 48 h
[1] = tested on: COLO 205 colon
[2] = tested on: U251 CNS
[3] = tested on: MALME-3M melanoma
[4] = tested on: CAKI-1 renal
[5] = tested on: 786-0 renal
[6] = tested on: DU-145 prostate
[7] = tested on: SNB-75 CNS
[8] = tested on: NCI/ADR-RES ovarian
[9] = tested on: SF-295 CNS
[10] = tested on: BT-549 breast
[11] = tested on: RXF 393 renal
[12] = tested on: KM12 colon
[13] = tested on: OVCAR-4 ovarian
[14] = tested on: UACC-257 melanoma
[15] = tested on: UACC-62 melanoma
[16] = tested on: A498 renal
[17] = tested on: A549 NSCLC
[18] = tested on: OVCAR-5 ovarian
[19] = tested on: K-562 leukemia
[20] = tested on: HL-60(TB) leukemia
[21] = tested on: EKVX NSCLC
[22] = tested on: T-47D breast
[23] = tested on: TK-10 renal
[24] = tested on: SN12C renal
[25] = tested on: SF-539 CNS
[26] = tested on: SK-MEL-5 melanoma
[27] = tested on: NCI-H23 lung
[28] = tested on: MDA-MB-435
[29] = tested on: HCT-15 colon
[30] = tested on: SK-OV-3 ovarian
[31] = tested on: MOLT-4 leukemia
[32] = tested on: RPMI-8226 leukemia
[33] = tested on: NCI-H460 lung
[34] = tested on: MDA-MB-231 breast
[35] = tested on: CCRF-CEM leukemia
[36] = tested on: HOP-62 NSCLC
[37] = tested on: HCT-116 colon
[38] = tested on: SNB-19 CNS
[39] = tested on: SF-268 CNS
[40] = tested on: UO-31 renal
[41] = tested on: ACHN renal
[42] = tested on: NCI-H226 lung
[43] = tested on: OVCAR-3 ovarian
[44] = tested on: SW-620 colon
[45] = tested on: OVCAR-8 ovarian
[46] = tested on: LOX IMVI melanoma
[47] = tested on: HCC-2998 colon
[48] = tested on: SK-MEL-28 melanoma
[49] = tested on: IGROV1 ovarian
[50] = tested on: MCF7 breast
[51] = tested on: M14 melanoma
[52] = tested on: SK-MEL-2 melanoma
[53] = tested on: HOP-92 NSCLC
[54] = tested on: HS 578T breast

CC1CSc2nc3[nH]c(=S)[nH]c3c(=O)n2C1 (configuration not stated)
TGI [1]: > 100 µM | TGI [2]: > 100 µM | TGI [3]: > 100 µM | TGI [4]: > 100 µM | TGI [5]: > 100 µM | TGI [6]: > 100 µM | TGI [7]: > 100 µM | TGI [8]: > 100 µM | TGI [9]: > 100 µM | TGI [10]: > 100 µM | TGI [11]: > 100 µM | TGI [12]: > 100 µM | TGI [13]: > 100 µM | TGI [14]: > 100 µM | TGI [15]: > 100 µM | TGI [16]: > 100 µM | TGI [17]: > 100 µM | TGI [18]: > 100 µM | TGI [19]: > 100 µM | TGI [20]: > 100 µM | TGI [21]: > 100 µM | TGI [22]: > 100 µM | TGI [23]: > 100 µM | TGI [24]: > 100 µM | TGI [25]: > 100 µM | TGI [26]: > 100 µM | TGI [27]: > 100 µM | TGI [28]: > 100 µM | TGI [29]: > 100 µM | TGI [30]: > 100 µM | TGI [31]: > 100 µM | TGI [32]: > 100 µM | TGI [33]: > 100 µM | TGI [34]: > 100 µM | TGI [35]: > 100 µM | TGI [36]: > 100 µM | TGI [37]: > 100 µM | TGI [38]: > 100 µM | TGI [39]: > 100 µM | TGI [40]: > 100 µM | TGI [41]: > 100 µM | TGI [42]: > 100 µM | TGI [43]: > 100 µM | TGI [44]: > 100 µM | TGI [45]: > 100 µM | TGI [46]: > 100 µM | TGI [47]: > 100 µM | TGI [48]: > 100 µM | TGI [49]: > 100 µM | TGI [50]: > 100 µM

COc1ccc(C(=O)/C=C/c2cc(C(=O)c3cc(OC)c(OC)c(OC)c3)ccc2OC)cc1
GI50 [51]: 4.92 µM | TGI [51]: > 100 µM | GI50 [2]: 3.11 µM | TGI [2]: > 100 µM | GI50 [5]: 7.71 µM | TGI [5]: > 100 µM | GI50 [7]: 4.75 µM | TGI [7]: 33.7 µM | GI50 [8]: 2.93 µM | TGI [8]: > 100 µM | GI50 [9]: 6.27 µM | TGI [9]: > 100 µM | GI50 [52]: 6.04 µM | TGI [52]: > 100 µM | GI50 [10]: 2.85 µM | TGI [10]: > 100 µM | GI50 [11]: 14.7 µM | TGI [11]: > 100 µM | GI50 [16]: 7.33 µM | TGI [16]: > 100 µM | GI50 [17]: > 100 µM | TGI [17]: > 100 µM | GI50 [19]: 2.86 µM | TGI [19]: > 100 µM | GI50 [23]: 14 µM | TGI [23]: > 100 µM | GI50 [53]: 5.81 µM | TGI [53]: 58.9 µM | GI50 [30]: > 100 µM | TGI [30]: > 100 µM | GI50 [54]: 4.3 µM | TGI [54]: > 100 µM | GI50 [34]: 3.69 µM | TGI [34]: > 100 µM | GI50 [36]: 11.8 µM | TGI [36]: 94.5 µM | GI50 [38]: 4.54 µM | TGI [38]: > 100 µM | GI50 [39]: 3.51 µM | TGI [39]: > 100 µM | GI50 [41]: 3.19 µM | TGI [41]: > 100 µM | GI50 [42]: 4.34 µM | TGI [42]: > 100 µM | GI50 [44]: 3.07 µM | TGI [44]: > 100 µM | GI50 [45]: 4.61 µM | TGI [45]: > 100 µM | GI50 [49]: 8.82 µM | TGI [49]: > 100 µM | GI50 [50]: 3.05 µM | TGI [50]: > 100 µM
